Measured values taken from ChEMBL document CHEMBL5303761, “Data for DCP probe BI-3231” (2023).

Experiments:
[1] = biological target: Muscarinic acetylcholine receptor M3 (Homo sapiens) (UniProt P20309); assay: M3/H Eurofins SafetyScreen44 (BI); conditions: Compound concentration 10.0 uM
[2] = biological target: T1, Muscarinic acetylcholine receptor M2 (Homo sapiens) (UniProt P08172); conditions: Compound concentration 10.0 uM
T1 sequence (whole entry): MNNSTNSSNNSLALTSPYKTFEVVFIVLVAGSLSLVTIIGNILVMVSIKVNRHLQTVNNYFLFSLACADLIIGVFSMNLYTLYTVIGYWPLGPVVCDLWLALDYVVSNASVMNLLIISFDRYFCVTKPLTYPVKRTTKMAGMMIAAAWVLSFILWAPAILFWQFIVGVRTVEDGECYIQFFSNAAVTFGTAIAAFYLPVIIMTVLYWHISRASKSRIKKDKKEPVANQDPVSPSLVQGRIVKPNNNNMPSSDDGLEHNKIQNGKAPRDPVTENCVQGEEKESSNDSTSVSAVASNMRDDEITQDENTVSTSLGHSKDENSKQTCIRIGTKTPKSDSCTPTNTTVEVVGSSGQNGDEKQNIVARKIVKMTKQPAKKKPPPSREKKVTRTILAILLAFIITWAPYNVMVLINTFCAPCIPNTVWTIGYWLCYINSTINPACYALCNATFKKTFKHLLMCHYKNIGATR

[3] = biological target: Muscarinic acetylcholine receptor M3 (Homo sapiens) (UniProt P20309); conditions: Compound concentration 10.0 uM
[4] = biological target: Cannabinoid receptor 2 (Homo sapiens) (UniProt P34972); assay: CB2/PERIPH/H Eurofins SafetyScreen44 (BI); conditions: Compound concentration 10.0 uM
Sequence of Cannabinoid receptor 2 (Homo sapiens) (P34972 whole entry): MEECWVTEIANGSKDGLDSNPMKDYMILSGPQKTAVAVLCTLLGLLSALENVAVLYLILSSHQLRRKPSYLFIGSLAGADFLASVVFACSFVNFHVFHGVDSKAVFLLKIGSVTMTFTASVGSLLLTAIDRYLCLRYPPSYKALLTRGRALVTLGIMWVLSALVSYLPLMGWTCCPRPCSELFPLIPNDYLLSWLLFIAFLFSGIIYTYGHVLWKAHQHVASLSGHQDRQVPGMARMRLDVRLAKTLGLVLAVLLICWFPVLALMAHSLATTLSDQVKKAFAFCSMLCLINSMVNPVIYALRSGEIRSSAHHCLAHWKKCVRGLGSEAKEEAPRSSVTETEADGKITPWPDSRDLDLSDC

[5] = biological target: Mu-type opioid receptor (Homo sapiens) (UniProt P35372); assay: MU/H Eurofins SafetyScreen44 (BI); conditions: Compound concentration 10.0 uM
Sequence of Mu-type opioid receptor (Homo sapiens) (P35372 whole entry): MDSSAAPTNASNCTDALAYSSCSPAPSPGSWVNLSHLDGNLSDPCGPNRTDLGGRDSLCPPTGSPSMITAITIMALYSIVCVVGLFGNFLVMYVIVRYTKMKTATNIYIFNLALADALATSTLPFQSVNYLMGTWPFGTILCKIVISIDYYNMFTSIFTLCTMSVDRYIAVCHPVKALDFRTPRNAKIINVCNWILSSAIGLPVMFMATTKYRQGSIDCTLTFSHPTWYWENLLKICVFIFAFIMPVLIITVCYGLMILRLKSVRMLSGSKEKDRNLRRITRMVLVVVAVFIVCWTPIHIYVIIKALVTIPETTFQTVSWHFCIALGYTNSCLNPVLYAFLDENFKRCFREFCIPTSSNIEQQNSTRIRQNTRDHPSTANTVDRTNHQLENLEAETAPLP

[6] = biological target: D(1A) dopamine receptor (Homo sapiens) (UniProt P21728); assay: D1/H Eurofins SafetyScreen44 (BI); conditions: filed as antagonist, Compound concentration 10.0 uM
[7] = biological target: Alpha-1B adrenergic receptor (Homo sapiens) (UniProt P35368); conditions: Compound concentration 10.0 uM
Sequence of Alpha-1B adrenergic receptor (Homo sapiens) (P35368 whole entry): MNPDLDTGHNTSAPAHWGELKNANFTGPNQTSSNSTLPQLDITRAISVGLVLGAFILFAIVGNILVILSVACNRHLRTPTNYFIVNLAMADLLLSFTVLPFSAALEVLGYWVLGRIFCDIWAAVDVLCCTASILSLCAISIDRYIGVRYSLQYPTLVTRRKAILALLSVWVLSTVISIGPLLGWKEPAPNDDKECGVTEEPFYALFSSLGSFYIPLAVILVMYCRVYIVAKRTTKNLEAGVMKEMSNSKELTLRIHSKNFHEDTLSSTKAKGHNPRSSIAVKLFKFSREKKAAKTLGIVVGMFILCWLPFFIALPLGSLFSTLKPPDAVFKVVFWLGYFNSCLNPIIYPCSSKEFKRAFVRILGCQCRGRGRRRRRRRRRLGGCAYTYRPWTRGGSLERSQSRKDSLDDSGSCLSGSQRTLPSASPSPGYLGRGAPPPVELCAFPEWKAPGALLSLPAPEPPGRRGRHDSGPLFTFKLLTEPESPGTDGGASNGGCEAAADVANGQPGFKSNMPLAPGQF

[8] = biological target: 5-hydroxytryptamine receptor 1B (Homo sapiens) (UniProt P28222); conditions: Compound concentration 10.0 uM
Sequence of 5-hydroxytryptamine receptor 1B (Homo sapiens) (P28222 whole entry): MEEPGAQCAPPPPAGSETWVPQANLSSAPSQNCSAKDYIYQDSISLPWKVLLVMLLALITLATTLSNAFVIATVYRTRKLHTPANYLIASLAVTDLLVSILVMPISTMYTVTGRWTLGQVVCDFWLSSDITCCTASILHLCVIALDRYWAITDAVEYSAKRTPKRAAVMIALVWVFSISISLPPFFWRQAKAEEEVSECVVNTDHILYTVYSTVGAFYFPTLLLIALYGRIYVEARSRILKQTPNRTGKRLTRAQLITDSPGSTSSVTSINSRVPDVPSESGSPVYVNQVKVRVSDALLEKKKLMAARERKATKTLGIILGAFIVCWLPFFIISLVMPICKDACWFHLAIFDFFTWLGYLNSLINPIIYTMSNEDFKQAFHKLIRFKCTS

[9] = biological target: Prostaglandin G/H synthase 1 (Homo sapiens) (UniProt P23219); assay: COX-1 Eurofins SafetyScreen44 (BI); conditions: Compound concentration 10.0 uM
[10] = biological target: Mu-type opioid receptor (Homo sapiens) (UniProt P35372); conditions: Compound concentration 10.0 uM
[11] = biological target: T1, Muscarinic acetylcholine receptor M2 (Homo sapiens); assay: M2/H Eurofins SafetyScreen44 (BI); conditions: filed as antagonist, Compound concentration 10.0 uM
[12] = biological target: 5-hydroxytryptamine receptor 2B (Homo sapiens) (UniProt P41595); conditions: Compound concentration 10.0 uM
Sequence of 5-hydroxytryptamine receptor 2B (Homo sapiens) (P41595 whole entry): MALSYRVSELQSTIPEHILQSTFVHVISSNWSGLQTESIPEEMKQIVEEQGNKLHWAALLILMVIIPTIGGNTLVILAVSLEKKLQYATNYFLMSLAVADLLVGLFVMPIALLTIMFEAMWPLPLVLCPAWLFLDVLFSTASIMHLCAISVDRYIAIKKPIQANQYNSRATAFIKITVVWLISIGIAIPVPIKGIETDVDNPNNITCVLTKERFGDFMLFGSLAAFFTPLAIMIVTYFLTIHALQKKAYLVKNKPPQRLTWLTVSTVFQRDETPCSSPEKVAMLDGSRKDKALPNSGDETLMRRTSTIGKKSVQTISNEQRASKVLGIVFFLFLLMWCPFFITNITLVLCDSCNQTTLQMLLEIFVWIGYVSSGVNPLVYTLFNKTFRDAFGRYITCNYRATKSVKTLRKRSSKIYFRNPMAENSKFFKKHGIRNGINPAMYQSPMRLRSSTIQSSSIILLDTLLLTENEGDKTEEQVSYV

[13] = biological target: Prostaglandin G/H synthase 2 (Homo sapiens) (UniProt P35354); assay: COX-2 Eurofins SafetyScreen44 (BI); conditions: Compound concentration 10.0 uM
[14] = biological target: D(2) dopamine receptor (Homo sapiens) (UniProt P14416); assay: D2SH_AGON Eurofins SafetyScreen44 (BI); conditions: filed as agonist, Compound concentration 10.0 uM
[15] = biological target: Glucocorticoid receptor (Homo sapiens) (UniProt P04150); assay: GCORTICOID/H Eurofins SafetyScreen44 (BI); conditions: Compound concentration 10.0 uM
Sequence of Glucocorticoid receptor (Homo sapiens) (P04150 whole entry): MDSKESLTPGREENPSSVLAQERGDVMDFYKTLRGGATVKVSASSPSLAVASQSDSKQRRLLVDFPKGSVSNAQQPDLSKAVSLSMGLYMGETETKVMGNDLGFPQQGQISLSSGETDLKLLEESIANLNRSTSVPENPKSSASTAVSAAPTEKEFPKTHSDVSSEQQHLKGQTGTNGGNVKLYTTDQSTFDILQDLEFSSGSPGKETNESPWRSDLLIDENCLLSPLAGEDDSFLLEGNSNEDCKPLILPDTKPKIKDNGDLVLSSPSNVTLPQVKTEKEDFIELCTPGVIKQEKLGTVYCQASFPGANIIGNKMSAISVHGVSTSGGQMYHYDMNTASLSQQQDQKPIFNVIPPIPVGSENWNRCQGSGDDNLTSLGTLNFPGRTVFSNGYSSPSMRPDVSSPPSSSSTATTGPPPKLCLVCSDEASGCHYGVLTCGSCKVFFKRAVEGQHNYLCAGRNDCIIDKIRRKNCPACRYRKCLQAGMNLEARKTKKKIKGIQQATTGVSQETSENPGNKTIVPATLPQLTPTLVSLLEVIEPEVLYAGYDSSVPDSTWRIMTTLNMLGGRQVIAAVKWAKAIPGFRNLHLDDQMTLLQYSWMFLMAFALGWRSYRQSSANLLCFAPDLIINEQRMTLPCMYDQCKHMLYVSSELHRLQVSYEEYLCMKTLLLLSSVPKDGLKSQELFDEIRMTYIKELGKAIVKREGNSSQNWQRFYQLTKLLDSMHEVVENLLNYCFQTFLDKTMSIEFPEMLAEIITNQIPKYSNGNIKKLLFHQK

[16] = biological target: Cholecystokinin receptor type A (Homo sapiens) (UniProt P32238); assay: CCKA/H Eurofins SafetyScreen44 (BI); conditions: Compound concentration 10.0 uM
Sequence of Cholecystokinin receptor type A (Homo sapiens) (P32238 whole entry): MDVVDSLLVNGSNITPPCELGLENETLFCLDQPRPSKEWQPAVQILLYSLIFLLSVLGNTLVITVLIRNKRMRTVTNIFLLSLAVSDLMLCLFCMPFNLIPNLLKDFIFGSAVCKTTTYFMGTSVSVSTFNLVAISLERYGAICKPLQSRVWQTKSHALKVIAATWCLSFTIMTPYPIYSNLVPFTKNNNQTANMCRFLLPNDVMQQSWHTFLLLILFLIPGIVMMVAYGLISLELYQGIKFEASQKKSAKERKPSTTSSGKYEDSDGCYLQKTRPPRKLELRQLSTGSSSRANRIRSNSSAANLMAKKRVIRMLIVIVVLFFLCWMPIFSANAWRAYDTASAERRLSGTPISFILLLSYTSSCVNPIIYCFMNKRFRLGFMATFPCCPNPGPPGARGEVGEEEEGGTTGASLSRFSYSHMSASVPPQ

[17] = biological target: T2, 5-hydroxytryptamine receptor 3A (Homo sapiens) (UniProt P46098); assay: 5HT3/H Eurofins SafetyScreen44 (BI); conditions: Compound concentration 10.0 uM
T2 sequence (whole entry): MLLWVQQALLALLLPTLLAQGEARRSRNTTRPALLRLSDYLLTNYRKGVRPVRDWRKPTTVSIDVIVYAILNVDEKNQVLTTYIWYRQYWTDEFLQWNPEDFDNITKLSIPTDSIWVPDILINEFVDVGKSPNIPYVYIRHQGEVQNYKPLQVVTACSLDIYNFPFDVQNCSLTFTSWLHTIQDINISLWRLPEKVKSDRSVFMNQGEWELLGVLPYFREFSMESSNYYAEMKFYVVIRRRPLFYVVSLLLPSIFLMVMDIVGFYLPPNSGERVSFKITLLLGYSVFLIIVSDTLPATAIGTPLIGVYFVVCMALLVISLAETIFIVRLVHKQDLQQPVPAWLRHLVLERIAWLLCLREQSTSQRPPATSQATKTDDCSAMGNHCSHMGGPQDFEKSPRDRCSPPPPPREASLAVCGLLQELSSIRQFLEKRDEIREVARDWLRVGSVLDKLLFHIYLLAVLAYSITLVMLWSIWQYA

[18] = biological target: T3, Alpha-1A adrenergic receptor (Homo sapiens) (UniProt P35348); conditions: Compound concentration 10.0 uM
T3 sequence (whole entry): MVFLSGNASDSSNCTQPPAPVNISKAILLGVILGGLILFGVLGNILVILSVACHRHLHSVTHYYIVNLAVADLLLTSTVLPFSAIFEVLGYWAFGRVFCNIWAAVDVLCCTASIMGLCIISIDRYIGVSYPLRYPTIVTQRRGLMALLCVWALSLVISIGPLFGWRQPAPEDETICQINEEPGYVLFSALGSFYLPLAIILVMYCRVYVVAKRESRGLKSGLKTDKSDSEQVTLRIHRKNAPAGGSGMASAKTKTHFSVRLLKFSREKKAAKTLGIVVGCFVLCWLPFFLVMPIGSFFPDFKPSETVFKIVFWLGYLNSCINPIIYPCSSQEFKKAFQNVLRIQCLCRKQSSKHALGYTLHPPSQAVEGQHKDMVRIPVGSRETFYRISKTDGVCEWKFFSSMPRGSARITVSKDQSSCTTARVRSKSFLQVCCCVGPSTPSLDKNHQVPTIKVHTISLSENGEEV

[19] = biological target: T3, Alpha-1A adrenergic receptor (Homo sapiens); assay: ALPHA1AH_ANTAG Eurofins SafetyScreen44 (BI); conditions: filed as antagonist, Compound concentration 10.0 uM
[20] = biological target: Beta-1 adrenergic receptor (Homo sapiens) (UniProt P08588); assay: BETA1/HUM Eurofins SafetyScreen44 (BI); conditions: Compound concentration 10.0 uM
[21] = biological target: Alpha-2B adrenergic receptor (Homo sapiens) (UniProt P18089); conditions: Compound concentration 10.0 uM
Sequence of Alpha-2B adrenergic receptor (Homo sapiens) (P18089 whole entry): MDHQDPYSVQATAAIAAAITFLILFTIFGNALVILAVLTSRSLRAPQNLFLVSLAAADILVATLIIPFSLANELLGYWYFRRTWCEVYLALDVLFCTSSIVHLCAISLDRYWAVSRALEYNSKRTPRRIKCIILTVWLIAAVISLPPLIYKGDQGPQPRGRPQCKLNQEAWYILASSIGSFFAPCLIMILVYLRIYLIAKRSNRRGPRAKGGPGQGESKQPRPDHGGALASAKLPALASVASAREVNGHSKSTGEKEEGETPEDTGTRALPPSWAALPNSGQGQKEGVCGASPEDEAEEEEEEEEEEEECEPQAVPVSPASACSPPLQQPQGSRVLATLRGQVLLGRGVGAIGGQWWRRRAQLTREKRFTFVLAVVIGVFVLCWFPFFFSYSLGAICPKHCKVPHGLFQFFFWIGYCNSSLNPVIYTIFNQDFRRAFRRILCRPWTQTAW

[22] = biological target: 3',5'-cyclic-AMP phosphodiesterase 4D (Homo sapiens) (UniProt Q08499); assay: PDE4D2 Eurofins SafetyScreen44 (BI); conditions: Compound concentration 10.0 uM
[23] = biological target: GABA-A receptor; anion channel (Rattus norvegicus) (UniProt O09028+P15431+P18506+P18508+P19969+P20236+P23574+P23576+P28471+P28473+P30191+P62813+P63079+P63138+Q91ZM7+Q9ES14); assay: BZD/CENTR/R Eurofins SafetyScreen44 (BI); format: protein-complex assay; conditions: Compound concentration 10.0 uM
[24] = biological target: Muscarinic acetylcholine receptor M5 (Homo sapiens) (UniProt P08912); conditions: Compound concentration 10.0 uM
Sequence of Muscarinic acetylcholine receptor M5 (Homo sapiens) (P08912 whole entry): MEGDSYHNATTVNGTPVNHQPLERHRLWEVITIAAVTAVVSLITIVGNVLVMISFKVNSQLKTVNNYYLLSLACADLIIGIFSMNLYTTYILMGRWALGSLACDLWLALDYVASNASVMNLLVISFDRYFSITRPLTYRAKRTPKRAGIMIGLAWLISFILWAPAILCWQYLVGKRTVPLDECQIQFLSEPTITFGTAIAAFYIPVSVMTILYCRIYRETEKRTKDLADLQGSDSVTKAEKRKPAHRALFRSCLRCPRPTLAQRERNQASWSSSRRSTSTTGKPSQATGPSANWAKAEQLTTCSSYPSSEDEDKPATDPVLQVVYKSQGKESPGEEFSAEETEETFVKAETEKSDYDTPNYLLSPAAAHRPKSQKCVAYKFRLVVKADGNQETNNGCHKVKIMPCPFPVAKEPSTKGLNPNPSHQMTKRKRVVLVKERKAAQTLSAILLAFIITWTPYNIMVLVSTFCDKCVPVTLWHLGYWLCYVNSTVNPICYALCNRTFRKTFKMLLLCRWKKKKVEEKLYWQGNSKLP

[25] = biological target: T2, 5-hydroxytryptamine receptor 3A (Homo sapiens); conditions: Compound concentration 10.0 uM

Sequence of Muscarinic acetylcholine receptor M3 (Homo sapiens) (P20309 whole entry, looked up): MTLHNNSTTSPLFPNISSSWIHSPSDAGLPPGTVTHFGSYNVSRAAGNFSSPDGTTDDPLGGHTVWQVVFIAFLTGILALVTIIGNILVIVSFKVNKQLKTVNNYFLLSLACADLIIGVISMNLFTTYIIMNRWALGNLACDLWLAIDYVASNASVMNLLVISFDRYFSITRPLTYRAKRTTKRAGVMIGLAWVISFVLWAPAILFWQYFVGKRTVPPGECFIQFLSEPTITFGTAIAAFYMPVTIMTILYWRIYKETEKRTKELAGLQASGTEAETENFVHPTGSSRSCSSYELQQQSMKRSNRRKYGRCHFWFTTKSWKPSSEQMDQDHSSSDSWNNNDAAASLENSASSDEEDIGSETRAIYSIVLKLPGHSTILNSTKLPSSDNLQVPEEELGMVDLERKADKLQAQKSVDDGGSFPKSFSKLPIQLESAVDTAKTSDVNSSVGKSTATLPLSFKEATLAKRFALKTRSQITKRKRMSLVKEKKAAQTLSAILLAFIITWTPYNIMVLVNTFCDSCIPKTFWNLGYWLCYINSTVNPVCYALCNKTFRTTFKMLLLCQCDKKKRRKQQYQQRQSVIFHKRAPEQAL

Row | inhibition [2] [%] | inhibition [3] [%] | inhibition [7] [%] | inhibition [8] [%] | inhibition [10] [%] | inhibition [12] [%] | inhibition [18] [%] | Compound | residual activity [1] [%] | residual activity [4] [%] | residual activity [5] [%] | residual activity [6] [%] | residual activity [9] [%] | residual activity [11] [%] | residual activity [13] [%] | residual activity [14] [%] | residual activity [15] [%] | residual activity [16] [%] | residual activity [17] [%] | residual activity [19] [%] | residual activity [20] [%] | further results
1 | -5.24 | -3.96 | -10 | 16 | -0.02 | -8.82 | -6.48 | CCn1c(=O)c(C)cn(Cc2nnc(-c3ccc(F)c(O)c3F)s2)c1=O | 96 | 98 | 87 | 105 | 76 | 106 | 49 | 84 | 96 | 78 | 106 | 107 | 95 | inhibition [21]: 5.03%; residual activity [22]: 68%; residual activity [23]: 115%; inhibition [24]: -6.35%; inhibition [25]: 10.6%
2 | -0.14 | -1.37 | -0.13 | 8.52 | 12.9 | 28.5 | -8.57 | CCn1c(=O)c(C)cn(Cc2nnc(-c3ccc(F)c(OC)c3F)s2)c1=O | 107 | 110 | 102 | 97 | 88 | 113 | 44 | 92 | 88 | 99 | 98 | 88 | 94 | inhibition [21]: 2.49%; residual activity [22]: 64%; residual activity [23]: 94%; inhibition [24]: 0.59%; inhibition [25]: 7.41%
